Results reported in PubChem BioAssay (NCI).
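Cultured in 96-well plates, cells were exposed to test compound for 48 hours across five concentrations. GI50 is the concentration that inhibits growth by half. TGI denotes the concentration required for complete inhibition of growth.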

What was measured:
Test in all cases: NCI anticancer screen, dose series, 48 h
[1] = tested on: 786-0 renal
[2] = tested on: A498 renal
[3] = tested on: A549 NSCLC
[4] = tested on: ACHN renal
[5] = tested on: BT-549 breast
[6] = tested on: CAKI-1 renal
[7] = tested on: CCRF-CEM leukemia
[8] = tested on: COLO 205 colon
[9] = tested on: DU-145 prostate
[10] = tested on: EKVX NSCLC
[11] = tested on: HCC-2998 colon
[12] = tested on: HCT-116 colon
[13] = tested on: HCT-15 colon
[14] = tested on: HL-60(TB) leukemia
[15] = tested on: HOP-62 NSCLC
[16] = tested on: HOP-92 NSCLC
[17] = tested on: HS 578T breast
[18] = tested on: HT29 colon
[19] = tested on: IGROV1 ovarian
[20] = tested on: K-562 leukemia
[21] = tested on: KM12 colon
[22] = tested on: LOX IMVI melanoma
[23] = tested on: M14 melanoma
[24] = tested on: MALME-3M melanoma
[25] = tested on: MCF7 breast
[26] = tested on: MDA-MB-231 breast
[27] = tested on: MDA-MB-435
[28] = tested on: MDA-MB-468 breast
[29] = tested on: MOLT-4 leukemia
[30] = tested on: NCI-H226 lung
[31] = tested on: NCI-H23 lung
[32] = tested on: NCI-H460 lung
[33] = tested on: NCI-H522 lung
[34] = tested on: NCI/ADR-RES ovarian
[35] = tested on: OVCAR-3 ovarian
[36] = tested on: OVCAR-4 ovarian
[37] = tested on: OVCAR-5 ovarian
[38] = tested on: OVCAR-8 ovarian
[39] = tested on: PC-3 prostate
[40] = tested on: RPMI-8226 leukemia
[41] = tested on: RXF 393 renal
[42] = tested on: SF-268 CNS
[43] = tested on: SF-295 CNS
[44] = tested on: SF-539 CNS
[45] = tested on: SK-MEL-2 melanoma
[46] = tested on: SK-MEL-28 melanoma
[47] = tested on: SK-MEL-5 melanoma
[48] = tested on: SK-OV-3 ovarian
[49] = tested on: SN12C renal
[50] = tested on: SNB-19 CNS
[51] = tested on: SNB-75 CNS
[52] = tested on: SR leukemia
[53] = tested on: SW-620 colon
[54] = tested on: T-47D breast
[55] = tested on: TK-10 renal
[56] = tested on: U251 CNS
[57] = tested on: UACC-257 melanoma
[58] = tested on: UACC-62 melanoma
[59] = tested on: UO-31 renal

Structure (SMILES): COc1ccc(-c2cc(C(=O)N=Nc3c(O)[nH]c4ccccc34)c3ccccc3n2)cc1
- GI50 [1]: 6.88 µM
- TGI [1]: 20.8 µM
- GI50 [2]: 21.4 µM
- TGI [2]: 38.6 µM
- GI50 [3]: 2.08 µM
- TGI [3]: 4.78 µM
- GI50 [4]: 11 µM
- TGI [4]: 22.9 µM
- GI50 [5]: 14.5 µM
- TGI [5]: 29 µM
- GI50 [6]: 2.56 µM
- TGI [6]: 11 µM
- GI50 [7]: 9.06 µM
- TGI [7]: > 100 µM
- GI50 [8]: 11.6 µM
- TGI [8]: 26.6 µM
- GI50 [9]: 3.27 µM
- TGI [9]: 12.1 µM
- TGI [10]: 22.5 µM
- GI50 [11]: 3.87 µM
- TGI [11]: 13.1 µM
- GI50 [12]: 3.18 µM
- TGI [12]: 10.7 µM
- GI50 [13]: 10.3 µM
- TGI [13]: 24.7 µM
- GI50 [14]: 13.1 µM
- TGI [14]: > 100 µM
- GI50 [15]: 4.19 µM
- TGI [15]: 17.8 µM
- GI50 [16]: 3.26 µM
- TGI [16]: 16.7 µM
- GI50 [17]: 14 µM
- TGI [17]: 65.7 µM
- GI50 [18]: 3.59 µM
- TGI [18]: 12.8 µM
- GI50 [19]: 5.07 µM
- TGI [19]: 18.3 µM
- GI50 [20]: 4.53 µM
- TGI [20]: > 100 µM
- GI50 [21]: 11.1 µM
- TGI [21]: 28.3 µM
- GI50 [22]: 6.17 µM
- TGI [22]: 19.3 µM
- GI50 [23]: 4.3 µM
- TGI [23]: 17.4 µM
- GI50 [24]: 3.14 µM
- TGI [24]: 9.99 µM
- GI50 [25]: 10.7 µM
- TGI [25]: 26.3 µM
- GI50 [26]: 2.8 µM
- TGI [26]: 10.2 µM
- GI50 [27]: 3.04 µM
- TGI [27]: 12.1 µM
- GI50 [28]: 4.94 µM
- TGI [28]: 17.3 µM
- GI50 [29]: 4.93 µM
- TGI [29]: > 100 µM
- GI50 [30]: 4.1 µM
- TGI [30]: 19.4 µM
- GI50 [31]: 2.91 µM
- TGI [31]: 11.4 µM
- GI50 [32]: 3.32 µM
- TGI [32]: 11.4 µM
- GI50 [33]: 1.88 µM
- TGI [33]: 4.71 µM
- GI50 [34]: 3.48 µM
- TGI [34]: 15 µM
- GI50 [35]: 3.63 µM
- TGI [35]: 14.4 µM
- GI50 [36]: 5.24 µM
- TGI [36]: 20.9 µM
- GI50 [37]: 5.75 µM
- TGI [37]: 18.6 µM
- GI50 [38]: 3.13 µM
- TGI [38]: 12.4 µM
- GI50 [39]: 5.2 µM
- TGI [39]: 27.4 µM
- GI50 [40]: 9.32 µM
- TGI [40]: > 100 µM
- GI50 [41]: 4.16 µM
- TGI [41]: 15.4 µM
- GI50 [42]: 4.43 µM
- TGI [42]: 20.8 µM
- GI50 [43]: 11.2 µM
- TGI [43]: 24 µM
- GI50 [44]: 3.2 µM
- TGI [44]: 10.2 µM
- GI50 [45]: 16 µM
- TGI [45]: 35.2 µM
- GI50 [46]: 4.26 µM
- TGI [46]: 14.7 µM
- GI50 [47]: 12.1 µM
- TGI [47]: 25 µM
- GI50 [48]: 11.6 µM
- TGI [48]: 24.8 µM
- GI50 [49]: 11.3 µM
- TGI [49]: 24.4 µM
- GI50 [50]: 11 µM
- TGI [50]: 23 µM
- GI50 [51]: 1.94 µM
- TGI [51]: 15.1 µM
- GI50 [52]: 4.05 µM
- TGI [52]: > 100 µM
- GI50 [53]: 3.91 µM
- TGI [53]: 17.5 µM
- GI50 [54]: 8.61 µM
- TGI [54]: 27.2 µM
- GI50 [55]: 17.9 µM
- TGI [55]: 32.9 µM
- GI50 [56]: 2.34 µM
- TGI [56]: 6.37 µM
- GI50 [57]: 9.71 µM
- TGI [57]: 24.1 µM
- GI50 [58]: 9.93 µM
- TGI [58]: 21.8 µM
- GI50 [59]: 6 µM
- TGI [59]: 20.1 µM
